In US4613586A, “Gastrin releasing peptide-like peptides” (Board of Trustees of the Leland Stanford Junior University, priority 1984, dated 1986):
No end group written: not given here.

Key:
Format in all cases: binding, rabbit
[1] = system: GRP(1-27) antisera Code R3-2; test: GRP carboxyterminal radioimmunoassay (crossreactivity, displacement of 125I-GRP(1-27) trace); conditions: for Percent Crossreactivity in RIA GRP(1-27) Code R3-2: antisera dilution 1:20,000, GRP(1-27) trace and standard, based on amount of unlabeled peptide for 50 percent displacement, highest concentration tested 1 μM; for Crossreactivity with GRP carboxyterminal antiserum (in words): summary of Table 1
Description: (§1) Three GRP antisera were generated in rabbits against synthetic porcine GRP and GRP(1-16) (Peninsula Laboratories, San Carlos, CA) linked by a water soluble carbodiimide to bovine throglobulin (as described by Weber, E., Evans, C. J., Chang, J-K. and Barchas, J. D., J. Neurochem 38, 436-447 (1982). RIA conditions have been described in Weber, E., Evans, C. J., and Barchas, J. D., Nature 299, 77-79 (1982). Three GRP RIA's were utilized, the specificity of these RIA's is indicated in Table 1.
(§2) An antisera dilution of 1:20,000 for the GRP(1-27) R3-2 antisera and a dilution of 1:15,000 for the GRP(1-16) R2-6A were used for RIA. For these RIA's GRP(1-27) was used as ^125 I-trace and standard. An antisera dilution of 1:20,000 for GRP(1-16) R2-6B and GRP(1-16) trace and standard were used in the GRP(1-16) carboxyterminal assay. Crossreactivity was based on the amount of unlabeled peptide needed to obtain a 50 percent displacement of ^125 I-trace from the antisera. The highest concentration of unlabeled peptide tested was 1 μM.

[2] = system: GRP(1-16) antisera Code R2-6A; test: GRP aminoterminal radioimmunoassay (crossreactivity, displacement of 125I-GRP(1-27) trace); conditions: summary of Table 1
Description: as §1, §2

[3] = system: GRP(1-16) antisera Code R2-6B; test: GRP(1-16) carboxyterminal radioimmunoassay (crossreactivity, displacement of 125I-GRP(1-16) trace); conditions: summary of Table 1
Description: as §1, §2

Compound | Percent Crossreactivity in RIA GRP(1-27) Code R3-2 [1] [%] | Crossreactivity with GRP carboxyterminal antiserum (in words) [1] | Crossreactivity in GRP aminoterminal RIA (in words) [2] | Crossreactivity with GRP(1-16) carboxyterminal antisera (in words) [3]
CSCC[C@H](NC(=O)[C@H](CC(C)C)NC(=O)[C@H](Cc1cnc[nH]1)NC(=O)CNC(=O)[C@@H](NC(=O)[C@H](C)NC(=O)[C@H](Cc1c[nH]c2ccccc12)NC(=O)[C@H](CCC(N)=O)NC(=O)[C@H](CC(N)=O)NC(=O)CNC(=O)[C@H](CC(C)C)NC(=O)[C@H](CCCN=C(N)N)NC(=O)[C@H](CCC(N)=O)NC(=O)[C@@H]1CCC(=O)N1)C(C)C)C(N)=O [Bombesin] | 30 | crossreacted |  | 
CSCC[C@H](NC(=O)[C@H](CC(C)C)NC(=O)[C@H](Cc1c[nH]cn1)NC(=O)CNC(=O)[C@@H](NC(=O)[C@H](C)NC(=O)[C@H](Cc1c[nH]c2ccccc12)NC(=O)[C@H](Cc1c[nH]cn1)NC(=O)[C@H](CC(N)=O)NC(=O)CN)C(C)C)C(N)=O [GRP(18-27), Gly-Asn-His-Trp-Ala-Val-Gly-His-Leu-Met-NH2] | 60 | crossreacted | not | 
APVSVGGGTVLAKMYPRGNHWAVGHLM-NH2 [GRP] | 100 | crossreacted | crossreacted | little crossreactivity
